Measured values from EP0180850A2, “Antimycotic azolyl-methyl-cyclopropyl-carbinol derivatives” (BAYER AG, priority 1984, dated 1986).

What was measured:
Candida-Zellen = test: Antimycotic in-vivo activity (oral) in mouse candidosis; set-up: species or system Mäuse vom Typ SPF-CF1; settings: mice infected i.v. with 1-2 x 10^6 Candida cells; oral 10 to 100 mg/kg one hour before and seven hours after infection; survival on day 6 p.i.
Procedure: Versuchsbeschreibung: • Mäuse vom Typ SPF-CF1 wurden intravenös mit-1-2 x 10^6 logarithmisch wachsenden Candida-Zellen, die in physiologischer Kochsalzlösung suspendiert werden, infiziert. Eine Stunde vor und sieben Stunden nach der Infektion werden die Tiere mit jeweils 10 bis 100 mg/kg Körpergewicht der Präparate oral behandelt.
Unbehandelte Tiere starben am 3. bis 6. Tag post infektionem. Die Überlebensrate am 6. Tag post infektionem betrug bei unbehandelten Kontrolltieren etwa 5 %.

[1] = test system: Dermatophyten, Schimmelpilze, Hefen; test: Antimycotic in-vitro activity, serial dilution test, overall comparison with prior-art compounds; assay type: cell-based; settings: compared in words with known compounds (A), (B) and (C)
Procedure: Versuchsbeschreibung: • Die in-vitro-Prüfungen wurden im Reihenverdünnungstest mit Keiminokula von durchschnittlich 5 x 10^3 bis 10^4 Keimen/ml Substrat durchgeführt. Als Nährmedium dienten • a) für Dermatophyten und Schimmelpilze: Sabourand's milieu d'epreuve • b) für Hefen: • Fleischextrakt-Traubenzucker-Bouillon.
Die Bebrütungstemperatur betrug 28 bis 37°C, die Bebrütungsdauer lag bei 24 bis 96 Stunden bei Hefen und 96 Stunden bei Dermatophyten und Schimmelpilzen.

SMILES	Wirkung (Candida-Zellen)	antimykotische Wirkung [1]
OC(Cn1cncn1)(c1ccc(Cl)cc1)C1(SCc2ccc(Cl)cc2)CC1 (stereo not shown) [I-13]	+++++ (= sehr gute Wirkung = 90 % Überlebende am 6. Tag p.i.)	
CCSC1(C(O)(Cn2cncn2)c2ccc(Cl)cc2)CC1 (stereo not shown) [I-1, 1-(4-Chlorphenyl)-1-[1-(ethylthio)-1-cyclopropyl]-2-(1,2,4-triazol-1-yl)-1-ethanol]	+++++ (= sehr gute Wirkung = 90 % Überlebende am 6. Tag p.i.)	bessere antimykotische Wirkung
OC(Cn1cncn1)(c1ccc(Cl)cc1)C1(Oc2ccccc2)CC1 (stereo not shown) [I-5]	+++++ (= sehr gute Wirkung = 90 % Überlebende am 6. Tag p.i.)	bessere antimykotische Wirkung
CC[S+]([O-])C1(C(O)(Cn2cncn2)c2ccc(Cl)cc2)CC1 (stereo not shown) [I-3, 1-(4-Chlorphenyl)-1-[1-(ethylsulfinyl)-1-cyclopropyl]-2-(1,2,4-triazol-1-yl)-1-ethanol]	+++++ (= sehr gute Wirkung = 90 % Überlebende am 6. Tag p.i.)	bessere antimykotische Wirkung
OC(Cn1cncn1)(c1ccc(Cl)cc1)C1(Sc2ccc(Cl)cc2)CC1 (stereo not shown) [I-11]		bessere antimykotische Wirkung
CCS(=O)(=O)C1(C(O)(Cn2cncn2)c2ccc(Cl)cc2)CC1 (stereo not shown) [I-4]	+++ (= Wirkung = 60 % Überlebende am 6. Tag p.i.)	bessere antimykotische Wirkung
CCCCSC1(C(O)(Cn2cncn2)c2ccc(Cl)cc2)CC1 (stereo not shown) [I-6]	++++ (= gute Wirkung = 80 % Überlebende am 6. Tag p.i.)	bessere antimykotische Wirkung
OC(Cn1cncn1)(c1ccccc1)C1(Oc2ccc(Cl)cc2)CC1 (stereo not shown) [I-2]	+++++ (= sehr gute Wirkung = 90 % Überlebende am 6. Tag p.i.)	bessere antimykotische Wirkung
CCCCS(=O)(=O)C1(C(O)(Cn2cncn2)c2ccc(Cl)cc2)CC1 (stereo not shown) [I-7]	+++++ (= sehr gute Wirkung = 90 % Überlebende am 6. Tag p.i.)	bessere antimykotische Wirkung
